Results from BindingDB's records for PubMed 10215699 (Gliatech, 1999).
Several values for one entry are separate records, joined by “and”; a condition that tells them apart may be missing. Equal entries are not always repeated.

target: Hrh3 protein (Rattus norvegicus, UniProt Q5PPG3)
Sequence (Q5PPG3 whole entry): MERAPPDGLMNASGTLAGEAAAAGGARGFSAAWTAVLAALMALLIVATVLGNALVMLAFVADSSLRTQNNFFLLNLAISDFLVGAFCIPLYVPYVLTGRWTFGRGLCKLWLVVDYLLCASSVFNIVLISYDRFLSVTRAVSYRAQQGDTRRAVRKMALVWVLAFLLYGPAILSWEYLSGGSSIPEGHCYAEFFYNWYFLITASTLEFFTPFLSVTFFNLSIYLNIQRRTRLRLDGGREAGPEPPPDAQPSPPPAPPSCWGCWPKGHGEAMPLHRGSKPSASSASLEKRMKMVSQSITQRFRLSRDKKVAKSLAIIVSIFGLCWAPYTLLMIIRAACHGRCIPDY

In order of rising Ki:
1. CC(C)(C)CCC#CCCc1c[nH]cn1  0.83 nM
2. C(#CCCC1CCCC1)CCc1c[nH]cn1 [GT 2286]  0.95 nM
3. N[C@H](C=CCCc1cnc[nH]1)CC1CCCCC1 [GT 2231]  1 nM
4. C(#CCCC1CCCCC1)CCc1c[nH]cn1 [GT 2260]  2.9 nM
5. C(#CCCc1c[nH]cn1)CCCC1CCCCC1 [GT 2287]  3.4 nM
6. C(=CCCc1cnc[nH]1)CCc1ccccc1 [GT 2327]  5.5 nM
7. N[C@@H](CCc1ccccc1)C(=O)NCCc1c[nH]cn1 [GT 2148]  11 nM
8. O=C(CCCC1CCCCC1)NCCc1cnc[nH]1 [GT 2174]  16 nM
9. N[C@@H](CC1CCCCC1)C(=O)NCCc1cnc[nH]1 [GT 2140]  31 nM
10. c1ncc(CCCCCCC2CCCCC2)[nH]1 [GT 2321]  75 nM
11. N[C@@H](Cc1ccccc1)C(=O)NCCc1c[nH]cn1 [GT 2130]  104 nM
12. N[C@H](C(=O)NCCc1c[nH]cn1)c1ccccc1 [GT 2146]  630 nM
13. C(#Cc1c[nH]cn1)CCCC1CCCCC1 [GT 2288]  1030 nM
14. CN[C@@H](Cc1ccccc1)C(=O)NCCc1c[nH]cn1 [GT 2142]  1590 nM
15. N[C@H](Cc1ccccc1)C(=O)NCCc1c[nH]cn1 [GT 2136]  2810 nM

With `C(=CCCC1CCCCC1)CCc1cnc[nH]1` [GT 2228] the Ki was 4.2 nM and 15.2 nM.

target: Histamine H3 receptor (Homo sapiens, UniProt Q9Y5N1)
Sequence (Q9Y5N1 whole entry): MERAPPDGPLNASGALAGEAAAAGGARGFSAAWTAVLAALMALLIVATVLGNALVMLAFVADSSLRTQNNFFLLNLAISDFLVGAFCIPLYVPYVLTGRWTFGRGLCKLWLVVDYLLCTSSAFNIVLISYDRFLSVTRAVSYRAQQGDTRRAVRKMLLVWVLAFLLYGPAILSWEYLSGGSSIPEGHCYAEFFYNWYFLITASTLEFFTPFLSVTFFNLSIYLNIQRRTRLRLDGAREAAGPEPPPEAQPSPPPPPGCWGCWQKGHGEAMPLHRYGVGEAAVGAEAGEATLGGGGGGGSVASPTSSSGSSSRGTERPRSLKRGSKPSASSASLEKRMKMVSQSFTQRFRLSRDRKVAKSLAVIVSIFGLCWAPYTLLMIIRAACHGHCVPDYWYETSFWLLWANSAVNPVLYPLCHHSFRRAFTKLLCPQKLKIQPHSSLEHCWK

`C(=CCCC1CCCCC1)CCc1cnc[nH]1` [GT 2228] was tested, and the Ki was 3.2 nM.

target: Histamine H2 receptor (Homo sapiens, UniProt P25021)
Sequence (P25021 whole entry): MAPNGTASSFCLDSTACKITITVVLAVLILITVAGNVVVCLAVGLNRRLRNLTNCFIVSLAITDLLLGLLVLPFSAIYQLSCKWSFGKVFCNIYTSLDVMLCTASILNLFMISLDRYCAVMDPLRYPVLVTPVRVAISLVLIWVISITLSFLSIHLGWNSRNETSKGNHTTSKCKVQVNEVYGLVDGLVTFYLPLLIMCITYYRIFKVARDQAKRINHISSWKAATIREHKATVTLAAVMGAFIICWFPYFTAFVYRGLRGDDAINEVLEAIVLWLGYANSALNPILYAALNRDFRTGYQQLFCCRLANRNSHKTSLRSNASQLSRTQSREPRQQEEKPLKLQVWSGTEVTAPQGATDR

Work on `C(=CCCC1CCCCC1)CCc1cnc[nH]1` [GT 2228] yielded a Ki of 4470 nM.
